The assay relates to small (about 50 μm-about 90 μm) arterioles of the cremaster muscle. Further details: species or system male Sprague-Dawley rats. The conditions noted are these: rat, in vivo.

Consider `CC[N+](CC)(CC)CCOc1cccc(OCC[N+](CC)(CC)CC)c1OCC[N+](CC)(CC)CC` [gallamine triethiodide], for which the “effect on microvessel diameter” value is given as “Significant vasoconstriction” and the “vasodilation over time (time-dependent effects control)” value was “No vasodilation”.

These data come from patent publication US20110142882A1 (priority 2009, published 2011).
